target: PD-1/PD-L1 (Homo sapiens (Human), UniProt Q9NZQ7); assay: PD-1/PD-L1 Binding Assay (Alphascreen); details: numeric values
Experimental: PD-1/PD-L1 Binding Assay (Alphascreen)
The assays were conducted in a standard black 384-well polystyrene plate with a final volume of 20 μL. Inhibitors were first serially diluted in DMSO and then added to the plate wells before the addition of other reaction components. The final concentration of DMSO in the assay was […]. Add 100 nL/well of compound to the 384 reaction plate (6008280, PerkinElmer) with Echo and centrifuge at 1000 rpm for 1 minute. Add 5 μL/well 4×PD-L1 solutions to the 384 reaction plate, centrifuge at 1000 rpm for 1 minute, and add 5 μL/well 4×PD-1 solutions, centrifuge at 1000 rpm for 1 minute, and incubate at 25° C. for 15 minutes. The concentrations of the compounds were 300, 100, 33.33, 11.11, 3.70, 1.23, 0.41, 0.137, 0.046, 0.015, 0 nM, respectively. Add 10 μL/well 2× Anti-6×His AlphaLISA Acceptor beads and Streptavidin Donor beads solution (PerkinElmer-AL356F) to the above 384 reaction plate, centrifuge at 1000 rpm for 1 minute, and incubate at 25° C. in the dark for 120 minutes. Read the AlphaLISA signal value using the Envision Reader. IC50 determination was performed by fitting the curve of percent control activity versus the log of the inhibitor concentration using the GraphPad Prism 8.0 software.

Chain of PD-1/PD-L1 (Q9NZQ7 19-238): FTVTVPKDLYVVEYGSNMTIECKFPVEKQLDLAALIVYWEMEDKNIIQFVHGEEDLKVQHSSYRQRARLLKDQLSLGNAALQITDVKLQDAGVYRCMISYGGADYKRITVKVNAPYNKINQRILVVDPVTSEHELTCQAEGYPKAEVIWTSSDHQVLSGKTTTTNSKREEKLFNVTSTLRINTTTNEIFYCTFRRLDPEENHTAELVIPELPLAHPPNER

| SMILES | IC50 [nM] |
| --- | --- |
| Cc1c(-c2nc3cc(CN(C)[C@@H]4CCC[C@@H]4O)c(OC(F)F)cc3o2)cccc1-c1cccc(-c2nc3cc(CN4CCC[C@H]4C(=O)O)c(OC(F)F)cc3o2)c1C [Example 1, ((6-(difluoromethoxy)-2-(3′-(6-(difluoromethoxy)-5-((((1R,2S)-2-hydroxycyclopentyl)(methyl)amino)methyl)benzo[d]oxazol-2-yl)-2,2′-dimethyl-[1,1′-biphenyl]-3-yl)benzo[d]oxazol-5-yl)methyl)-L-proline] | 0.89 |
| Cc1c(-c2nc3cc(CN4CCC[C@H]4C(=O)O)c(OC(F)F)cc3o2)cccc1-c1cccc(-c2nc3cc(CN4CC(C)(C)C4)c(OC(F)F)cc3o2)c1C#N [Example 4, ((2-(2′-cyano-3′-(6-(difluoromethoxy)-5-((3,3-dimethylazetidin-1-yl)methyl)benzo[d]oxazol-2-yl)-2-methyl-[1,1′-biphenyl]-3-yl)-6-(difluoromethoxy)benzo[d]oxazol-5-yl)methyl)-L-proline] | 1.4 |
| Cc1c(-c2nc3cc(CN4CCC[C@H]4C(=O)O)c(OC(F)F)cc3o2)cccc1-c1cccc(-c2nc3cc(CN4CCCC4)c(OC(F)F)cc3o2)c1F [Example 6, ((6-(difluoromethoxy)-2-(3′-(6-(difluoromethoxy)-5-(pyrrolidin-1-ylmethyl)benzo[d]oxazol-2-yl)-2′-fluoro-2-methyl-[1,1′-biphenyl]-3-yl)benzo[d]oxazol-5-yl)methyl)-L-proline] | 4.3 |
| Cc1c(-c2nc3cc(CNCCO)c(OC(F)F)cc3o2)cccc1-c1cccc(-c2nc3cc(CN4CCC[C@H]4C(=O)O)c(OC(F)F)cc3o2)c1C [Example 7, ((6-(difluoromethoxy)-2-(3′-(6-(difluoromethoxy)-5-(((2-hydroxyethyl)amino)methyl)benzo[d]oxazol-2-yl)-2,2′-dimethyl-[1,1′-biphenyl]-3-yl)benzo[d]oxazol-5-yl)methyl)-L-proline] | 0.61 |
| Cc1c(-c2nc3cc(CN(C)CCO)c(OC(F)F)cc3o2)cccc1-c1cccc(-c2nc3cc(CN4CCC[C@H]4C(=O)O)c(OC(F)F)cc3o2)c1C [Example 17, ((6-(difluoromethoxy)-2-(3′-(6-(difluoromethoxy)-5-(((2-hydroxyethyl)(methyl)amino)methyl)benzo[d]oxazol-2-yl)-2,2′-dimethyl-[1,1′-biphenyl]-3-yl)benzo[d]oxazol-5-yl)methyl)-L-proline] | 1.2 |
| Cc1c(-c2nc3cc(CNC[C@@H]4CCC(=O)N4)c(OC(F)F)cc3o2)cccc1-c1cccc(-c2nc3cc(CN4CCC[C@H]4C(=O)O)c(OC(F)F)cc3o2)c1C [Example 19, ((6-(difluoromethoxy)-2-(3′-(6-(difluoromethoxy)-5-(((((S)-5-oxopyrrolidin-2-yl)methyl)amino)methyl)benzo[d]oxazol-2-yl)-2,2′-dimethyl-[1,1′-biphenyl]-3-yl)benzo[d]oxazol-5-yl)methyl)-L-proline] | 1.3 |
| CCNCc1cc2nc(-c3cccc(-c4cccc(-c5nc6cc(CN7CCC[C@H]7C(=O)O)c(OC(F)F)cc6o5)c4C)c3C)oc2cc1OC(F)F [Example 21, ((6-(difluoromethoxy)-2-(3′-(6-(difluoromethoxy)-5-((ethylamino)methyl)benzo[d]oxazol-2-yl)-2,2′-dimethyl-[1,1′-biphenyl]-3-yl)benzo[d]oxazol-5-yl)methyl)-L-proline] | 0.59 |
| Cc1c(-c2nc3cc(CNCCS(C)(=O)=O)c(OC(F)F)cc3o2)cccc1-c1cccc(-c2nc3cc(CN4CCC[C@H]4C(=O)O)c(OC(F)F)cc3o2)c1C [Example 32, ((6-(difluoromethoxy)-2-(3′-(6-(difluoromethoxy)-5-(((2-(methylsulfonyl)ethyl)amino)methyl)benzo[d]oxazol-2-yl)-2,2′-dimethyl-[1,1′-biphenyl]-3-yl)benzo[d]oxazol-5-yl)methyl)-L-proline] | 3.8 |

Now from value to compound:

| IC50 [nM] | SMILES |
| --- | --- |
| 18 | Cc1c(-c2nc3cc(CN4CC(F)C4)c(OC(F)F)cc3o2)cccc1-c1cccc(-c2nc3cc(CN4CCC[C@H]4C(=O)O)c(OC(F)F)cc3o2)c1C [Example 9, ((6-(difluoromethoxy)-2-(3′-(6-(difluoromethoxy)-5-((3-fluoroazetidin-1-yl)methyl)benzo[d]oxazol-2-yl)-2,2′-dimethyl-[1,1′-biphenyl]-3-yl)benzo[d]oxazol-5-yl)methyl)-L-proline] |
| 33 | Cc1c(-c2nc3cc(CN4CCC[C@H]4C(N)=O)c(OC(F)F)cc3o2)cccc1-c1cccc(-c2nc3cc(CN4CCC[C@H]4C(=O)O)c(OC(F)F)cc3o2)c1C [Example 11, ((2-(3′-(5-(((S)-2-carbamoylpyrrolidin-1-yl)methyl)-6-(difluoromethoxy)benzo[d]oxazol-2-yl)-2,2′-dimethyl-[1,1′-biphenyl]-3-yl)-6-(difluoromethoxy)benzo[d]oxazol-5-yl)methyl)-L-proline] |
| 1.6 | Cc1c(-c2nc3cc(CN4CC(O)C4)c(OC(F)F)cc3o2)cccc1-c1cccc(-c2nc3cc(CN4CCC[C@H]4C(=O)O)c(OC(F)F)cc3o2)c1C [Example 20, ((6-(difluoromethoxy)-2-(3′-(6-(difluoromethoxy)-5-((3-hydroxyazetidin-1-yl)methyl)benzo [d]oxazol-2-yl)-2,2′-dimethyl-[1,1′-biphenyl]-3-yl)benzo[d]oxazol-5-yl)methyl)-L-proline] |
| 0.98 | Cc1c(-c2nc3cc(CN)c(OC(F)F)cc3o2)cccc1-c1cccc(-c2nc3cc(CN4CCC[C@H]4C(=O)O)c(OC(F)F)cc3o2)c1C [Example 24, ((2-(3′-(5-(aminomethyl)-6-(difluoromethoxy)benzo[d]oxazol-2-yl)-2,2′-dimethyl-[1,1′-biphenyl]-3-yl)-6-(difluoromethoxy)benzo[d]oxazol-5-yl)methyl)-L-proline] |
| 0.3 | Cc1c(-c2nc3cc(CN[C@@H]4CCC[C@@H]4O)c(OC(F)F)cc3o2)cccc1-c1cccc(-c2nc3cc(CN4CCC[C@H]4C(=O)O)c(OC(F)F)cc3o2)c1C [Example 25, ((6-(difluoromethoxy)-2-(3′-(6-(difluoromethoxy)-5-((((1R,2S)-2-hydroxycyclopentyl)amino)methyl)benzo[d]oxazol-2-yl)-2,2′-dimethyl-[1,1′-biphenyl]-3-yl)benzo[d]oxazol-5-yl)methyl)-L-proline] |
| 0.66 | Cc1c(-c2nc3cc(CN[C@H]4CCC[C@H]4O)c(OC(F)F)cc3o2)cccc1-c1cccc(-c2nc3cc(CN4CCC[C@H]4C(=O)O)c(OC(F)F)cc3o2)c1C [Example 27, ((6-(difluoromethoxy)-2-(3′-(6-(difluoromethoxy)-5-((((1S,2R)-2-hydroxycyclopentyl)amino)methyl)benzo[d]oxazol-2-yl)-2,2′-dimethyl-[1,1′-biphenyl]-3-yl)benzo[d]oxazol-5-yl)methyl)-L-proline] |
| 0.91 | Cc1c(-c2nc3cc(CN4CC[C@@H]4CO)c(OC(F)F)cc3o2)cccc1-c1cccc(-c2nc3cc(CN4CCC[C@H]4C(=O)O)c(OC(F)F)cc3o2)c1C [Example 35, ((6-(difluoromethoxy)-2-(3′-(6-(difluoromethoxy)-5-(((R)-2-(hydroxymethyl)azetidin-1-yl)methyl)benzo[d]oxazol-2-yl)-2,2′-dimethyl-[1,1′-biphenyl]-3-yl)benzo[d]oxazol-5-yl)methyl)-L-proline] |

same assay, conditions: range symbols

| SMILES | IC50 [nM] |
| --- | --- |
| Cc1c(-c2nc3cc(CN(C)[C@@H]4CCC[C@@H]4O)c(OC(F)F)cc3o2)cccc1-c1cccc(-c2nc3cc(CN4CCC[C@@H]4C(=O)O)c(OC(F)F)cc3o2)c1C [Example 26, ((6-(difluoromethoxy)-2-(3′-(6-(difluoromethoxy)-5-((((1R,2S)-2-hydroxycyclopentyl) (methyl)amino)methyl)benzo[d]oxazol-2-yl)-2,2′-dimethyl-[1,1′-biphenyl]-3-yl)benzo[d]oxazol-5-yl)methyl)-D-proline] | 0.1 to 5 |
| Cc1c(-c2nc3cc(CN(C)C[C@H]4CCCO4)c(OC(F)F)cc3o2)cccc1-c1cccc(-c2nc3cc(CN4CCC[C@H]4C(=O)O)c(OC(F)F)cc3o2)c1C [Example 30, ((6-(difluoromethoxy)-2-(3′-(6-(difluoromethoxy)-5-((methyl(((R)-tetrahydrofuran-2-yl)methyl)amino)methyl)benzo[d]oxazol-2-yl)-2,2′-dimethyl-[1,1′-biphenyl]-3-yl)benzo[d]oxazol-5-yl)methyl)-L-proline] | 0.1 to 5 |

Continued, values first:

| IC50 [nM] | SMILES |
| --- | --- |
| 0.1 to 5 | Cc1c(-c2nc3cc(CN4CCC[C@H]4C(=O)O)c(OC(F)F)cc3o2)cccc1-c1cccc(-c2nc3cc(CN4CCC4(C)O)c(OC(F)F)cc3o2)c1C (stereo partly drawn) [Example 37, ((6-(difluoromethoxy)-2-(3′-(6-(difluoromethoxy)-5-((2-hydroxy-2-methylazetidin-1-yl)methyl)benzo[d]oxazol-2-yl)-2,2′-dimethyl-[1,1′-biphenyl]-3-yl)benzo[d]oxazol-5-yl)methyl)-L-proline] |
| 0.1 to 5 | Cc1c(-c2nc3cc(CN4CCCC4C)c(OC(F)F)cc3o2)cccc1-c1cccc(-c2nc3cc(CN4CCC[C@H]4C(=O)O)c(OC(F)F)cc3o2)c1C (stereo partly drawn) [Example 38, ((6-(difluoromethoxy)-2-(3′-(6-(difluoromethoxy)-5-((2-methylpyrrolidin-1-yl)methyl)benzo[d]oxazol-2-yl)-2,2′-dimethyl-[1,1′-biphenyl]-3-yl)benzo[d]oxazol-5-yl)methyl)-L-proline] |

From patent US12187713B2, “Immunomodulators, compositions and methods thereof” (Betta Pharmaceuticals Co., Ltd, priority 2019, dated 2025)
